Assay results: patent US20140170208A1, “TRANSDERMAL PATCH FORMULATION” (LABTEC GMBH, priority 2009, published 2014)
Where two headings read alike, the source gives them in different places.

What was measured:
[1] = Procedure: Rasagiline base (50 mg) was dissolved in the presented solvents (0.14 g) and the placed into an over at 70° C. to monitor its loss.
[2] = remark: listed apart in the source
Procedure: 1.5 Further Solubility Experiments Using IPM and “Silicone Oil 1000”
1.7 Concentrating of Rasagiline in IPM
2.2 Solubility of Rasagiline in Polidocanol
Experiment 3.8: Rasagiline Solubility in a Plastoid Bneutral Oil Solution
• 50 mg rasagiline WE 8596 in 300 mg Plastoid B-solution from exp.

[3] = remark: listed apart in the source
Description: Pilot Test Regarding the Solubility of Rasagiline Base in Non-Volatile Solvents for Use in a TDS
1.1 Solubility of Rasagiline Base

[4] = ca. 20-25 mg in 0.5 g or mL, ca. 1:20 mixture
[5] = ca. 20-25 mg in 1.0 g or mL, ca. 1:40 mixture

- Loss of rasagiline substance after removal of solvent by drying (FIG. 3) ([1]; 50 mg in 0.14 g pure water, oven at 70° C.): significant sublimation
- Sublimation of rasagiline base at 60-70° C. ([1]; melted in beaker glass at 60-70° C., covered with ice-cold watch glass): re-sublimates
- Rasagiline solubility in a Plastoid B neutral oil solution [2]: dissolved
- Solubility in silicone oil 1000 [2]: 25-30 mg/g silicone oil 1000
- Solubility of rasagiline in polidocanol [2]: completely soluble
- Solubility of rasagiline base in Cremophor EL [3, 4]: Nearly completely
- Solubility of rasagiline base in Glycerol anhydrous [3, 4]: Not Solubilised
- Solubility of rasagiline base in Isopropyl myristate (IPM) [3, 4]: Solubilised
- Solubility of rasagiline base in PEG 400 [3, 4]: Solubilised
- Solubility of rasagiline base in Polysorbat 80 [3, 4]: Solubilised
- Solubility of rasagiline base in Propylenglycol [3, 4]: Solubilised
- Solubility of rasagiline base in Silicone oil 1000 [3, 4]: Not Solubilised
- Solubility of rasagiline base in Vitamin-E-acetate [3, 4]: Nearly completely
- Solubility of rasagiline base in paraffine, viscous [3, 4]: Not Solubilised
- Solubility of rasagiline base in Cremophor EL [3, 5]: Solubilised
- Solubility of rasagiline base in Glycerol anhydrous [3, 5]: Not completely solubilised,
- Solubility of rasagiline base in Isopropyl myristate (IPM) [3, 5]: Solubilised
- Solubility of rasagiline base in PEG 400 [3, 5]: Solubilised
- Solubility of rasagiline base in Polysorbat 80 [3, 5]: Solubilised
- Solubility of rasagiline base in Propylenglycol [3, 5]: Solubilised
- Solubility of rasagiline base in Silicone oil 1000 [3, 5]: Solubilised
- Solubility of rasagiline base in Vitamin-E-acetate [3, 5]: Solubilised
- Solubility of rasagiline base in paraffine, viscous [3, 5]: Solubilised
Compound: C#CCN[C@@H]1CCc2ccccc21 [rasagiline base, rasagiline]
